Assay results: US20080012929A1, “AZO DYE, HEAT-SENSITIVE TRANSFER RECORDING INK SHEET, HEAT-SENSITIVE TRANSFER RECORDING METHOD, COLOR TONER, INKJET INK AND COLOR FILTER” (FUJIFILM Corporation, priority 2006, published 2008)

How the values were obtained:
[1] = Light stability (fastness to light) of the dye image under Xenon light irradiation; type: physicochemical; details: residual ratio of Status A reflection density (initial 1.0) after Xenon light (17000 lux) for 7 days
Procedure: Next, each of the thus-image-recorded heat-sensitive transfer image-receiving materials was subjected to irradiation with Xenon light (17000 lux) for 7 days, to examine light stability (fastness to light) of the dye image. Status A reflection densities after irradiation were measured in the portions indicating Status A reflection density of 1.0, and a stability of the image was evaluated in terms of a residual ratio (percentage) based on the reflection density before irradiation, according to the following three grades: • A: 80% or more, but 100% or less • B: 60% or more, but less than 80% • C: less than 60%

[2] = Solubility of dye when preparing the ink sheet dye-providing layer-coating composition; type: physicochemical; design: key: A: the dye easily dissolves; B: the dye dissolves; C: the dye is sparingly soluble, but dissolves; details: methyl ethyl ketone/toluene (1/1), polyvinylbutyral resin
Procedure: A polyester film of 6.0 μm in thickness (trade name: Lumirror, manufactured by Toray Industries, Inc.), a back surface of which had been subjected to a heat resistant lubricating treatment with a 1 μm thick thermosetting acrylic resin, was used as a support. On the front surface of the film, the following dye-providing layer-coating composition was coated by a wire bar coating so that a dry thinness of the dye-providing layer became 1 μm. Thus, Ink sheet 1 was prepared.
Solubility of these dyes contained in these ink sheets were evaluated according to the following three grades: • A: the dye easily dissolves. • B: the dye dissolves. • C: the dye is sparingly soluble, but dissolves.

SMILES: CCCCCn1nc(C(C)(C)C)c(N=Nc2ccc([N+](=O)[O-])cc2)c1N [(5)]
- Light fastness [1]: A (80% or more, but 100% or less)
- Solubility of dye [2]: A

SMILES: CCC(C)n1nc(C(C)(C)C)c(N=Nc2ccc([N+](=O)[O-])cc2)c1N (stereo not drawn) [(8)]
- Light fastness [1]: A (80% or more, but 100% or less)
- Solubility of dye [2]: A

SMILES: CCCCN(CCCC)C(=O)c1ccc2c(c1)C(=O)C(c1nc3ccc(C(C)C)cc3cc1O)C2=O (stereo not drawn) [Dye for Comparison 3, reference compound]
- Light fastness [1]: A (80% or more, but 100% or less)
- Solubility of dye [2]: B

SMILES: CC(C)CCn1nc(C(C)(C)C)c(N=Nc2ccc([N+](=O)[O-])cc2)c1N [(9)]
- Light fastness [1]: A (80% or more, but 100% or less)
- Solubility of dye [2]: A

SMILES: CC(C)Cn1nc(C(C)(C)C)c(N=Nc2ccc([N+](=O)[O-])cc2)c1N [(7)]
- Light fastness [1]: A (80% or more, but 100% or less)
- Solubility of dye [2]: A

SMILES: CCN(CCOc1ccc(C2CCCCC2)cc1)c1ccc(C=C(C#N)C#N)c(C)c1 [Dye for Comparison 2, reference compound]
- Light fastness [1]: C (less than 60%)
- Solubility of dye [2]: A
